Laboratory results from patent US7192768B2, “Synchronization of the cytoplasmatic and the nuclear maturation of oocytes in vitro” (Novo Nordisk A/S, priority 2001, dated 2007).
Marks after values point to notes of the source that are not given here.

Legend:
[1] = tested on: cumulus-enclosed oocytes (CEO); assay: FSH induced resumption of meiosis and cumulus expansion of hypoxanthine arrested mouse oocytes cultured in vitro (22-hydroxycholesterol); format: cell-based; parameters: Cumulus expansion: key to the marks not given beside the values
Protocol: Immature female mice (B6D2-F1 strain C57B1/2J) were kept under controlled light and temperature conditions with free access to food and water. Ovarian stimulation was performed when the mice weighed 10–16 grams and consisted of an intra-peritoneal injection of Gonadoplex (Leo, Copenhagen, Denmark) containing 7.5 U/mouse. The animals were killed by cervical dislocation 44–48 h later. The media used for the culture of oocytes consisted of α-Minimum Essential Medium (α-MEM), with Earles Balanced Salt Solution (EBSS), containing 4 mM hypoxanthine, 3 mg/ml bovine serum albumin, 0.23 mM pyruvate, 2 mM glutamine (all Sigma, U.S.A) and 100 IU/ml penicillin, 100 ug/ml Streptomycin. This medium was termed “HX-medium”. A media similar to the above but without HX are termed “maturation-medium”. Oocytes were isolated in HX-medium under a stereo microscope by manual rupture of follicles using a pair of 5.5-gauge needles. Spherical oocytes with intact cumulus cells connection and displaying germinal vesicle were categorized as cumulus-enclosed oocytes (CEO). Oocytes were rinsed 3 times in fresh HX-medium. Prior to each experimental set-up, all oocytes from 10–15 mice were pooled. Only oocytes with a germinal vesicle present were used and distributed in separate wells of a 4-well dish (Nuncoln, Denmark) containing 1 ml of HX-medium. Each well contained 20–30 oocytes and was cultured at 37° C. in 100% humidity in air with 5% CO2. Each experiment was repeated at least 4 times. At the end of the culture period (i.e 24 h), oocytes with GV or GVBD, or polar body (PB) were counted using an inverted microscope with differential interference contrast equipment (Leica, German). […]
Graduation of cumulus expansion: 0: No expansion, compact cumulus layer surrounding the oocyte; +: A slight cumulus expansion, the most peripheral cumulus cell looks a little fluffy; ++: good expansion of cumulus cell without a spherical cloud like expansion; +++: full cumulus expansion with a fluffy cloud like expansion with extended distance between the somatic cells.

cultured mouse oocytes = settings: WO 98/28323; cited from earlier work
[2] = tested on: cumulus-enclosed oocytes (CEO); assay: FSH induced resumption of meiosis of hypoxanthine arrested mouse oocytes cultured in vitro (ketoconazole); format: cell-based; settings: HX-medium; for % GVBD / % PB (PB/GVBD): 24 h
Protocol: Oocytes were obtained from immature mice (Kunming white mouse) weighing 14–16 g that were kept under controlled light and temperature conditions with free access to water. The mice received an intra peritoneal injection of 0.1 ml pregnant mare's serum gonadotrophin (PMSG, Sigma, New York, U.S.A) containing 10 IU PMSG. Forty-six hours later, the animals were killed by cervical dislocation. The ovaries were dissected out and placed in M199 culture medium (GIBCO, U.S.A) containing 4 mM hypoxanthine, 3 mg/ml bovine serum albumin, 0.23 mM pyruvate, 2 mM glutamine (all Sigma, U.S.A) and 100 IU/ml penicillin, 100 ug/ml Streptomycin. This medium was termed “HX-medium”. A media similar to the above but without HX are termed “maturation-medium”. Oocytes were isolated in HX-medium under a stereo microscope by manual rupture of follicles using a pair of 5.5-gauge needles. Spherical oocytes with intact cumulus cells connection and displaying germinal vesicle were categorized as cumulus-enclosed oocytes (CEO). Oocytes were rinsed 3 times in fresh HX-medium. Prior to each experimental set-up, all oocytes from 10–15 mice were pooled. Only oocytes with a germinal vesicle present were used and distributed in separate wells of a 4-well dish (Nuncoln, Denmark) containing 1 ml of HX-medium. Each well contained 20–30 oocytes and was cultured at 37° C. in 1000% humidity in air with 5% CO2. Each experiment was repeated at least 4 times. At the end of the culture period (i.e 24 h), oocytes with GV or GVBD, or polar body (PB) were counted using an inverted microscope with differential interference contrast equipment (Leica, German). The percentage of oocytes with GVBD per total number of oocytes (% GVBD) and the percentage of oocytes with PB formation per total number of oocytes (% PB) were calculated.

[3] = tested on: cumulus enclosed mouse oocytes; assay: FSH induced resumption of meiosis of mouse oocytes cultured in vitro (dbc-AMP control medium); format: cell-based; settings: for % GVBD / % PB (PB/GVBD): 22-24 h
Protocol: Immature female mice (B6D2-F1 strain C57B1/2J) were kept under controlled light and temperature conditions with free access to food and water. Ovarian stimulation was performed when the mice weighed 10–16 grams and consisted of an intra-peritoneal injection of Gonadoplex (Leo, Copenhagen, Denmark) containing 7.5 U/mouse. The animals were killed by cervical dislocation 44–48 h later. The media used for the culture of oocytes consisted of α-Minimum Essential Medium (α-MEM), with Earles Balanced Salt Solution (EBSS), 200 μM dibuturyl-cyclic-adenosine-mono-phosphate (dbc-AMP), 3 mg/ml Bovine Serum Albumin, 0,23 mM pyruvate, 2 mM glutamine, 100 IU/ml penicillin and 100 mg/ml streptomycin (i.e. control medium). The ovaries were recovered and oocytes isolated from the ovaries by puncturing individual follicles using a 25 gauge needle. The oocytes were washed 3 times in control medium before the start of each experiment. Cumulus enclosed oocytes were cultured separately in 4-well dishes (Nuncleon, Roskilde, Denmark), 0.4 ml medium in each well containing control medium or medium supplemented with ketoconazole in a 100% humidified atmosphere of 5% CO2 with 95% air at 37° C. The culture period was 22–24 h. By the end of the culture period, germinal vesicle breakdown (GVBD) was scored by examining the oocyte in an inverted microscope. The percentage of oocytes with GVBD per total number of oocytes (% GVBD) was calculated.

cumulus enclosed oocytes = settings: AY added to cumulus enclosed oocytes; cited from earlier work
human oocytes = settings: EGF 2 ng/ml, 30 h culture; cited from earlier work
[4] = 22-OH-cholesterole 1 μg/ml + FSH 75 IU/L, with fetal calf serum
[5] = 22-OH-cholesterole 1 μg/ml + FSH 75 IU/L, without fetal calf serum
[6] = 22-OH-cholesterole 5 μg/ml + FSH 75 IU/L, without fetal calf serum
[7] = 22-OH-cholesterole 10 μg/ml + FSH 75 IU/L, with fetal calf serum
[8] = 22-OH-cholesterole 10 μg/ml + FSH 75 IU/L, without fetal calf serum
[9] = 22-OH-cholesterole 25 μg/ml + FSH 75 IU/L, with fetal calf serum
[10] = 22-OH-cholesterole 25 μg/ml + FSH 75 IU/L, without fetal calf serum
[11] = ketoconazole 0.1 μM + FSH 50 IU/L
[12] = ketoconazole 1 μM + FSH 50 IU/L
[13] = ketoconazole 10 μM + FSH 50 IU/L
[14] = ketoconazole 100 μM + FSH 50 IU/L
[15] = ketoconazole 1000 μM + FSH 50 IU/L
[16] = ketoconazole 5 μM in medium with FSH 75 IU/L
[17] = ketoconazole 10 μM in medium with FSH 75 IU/L
[18] = ketoconazole 20 μM in medium with FSH 75 IU/L

CC(C)CCC(O)[C@@H](C)[C@H]1CC[C@H]2[C@@H]3CC=C4C[C@@H](O)CC[C@]4(C)[C@H]3CC[C@]12C (some centres unmarked) [22-OH-cholesterole, 22-hydroxycholesterol]
% GVBD [1, 4]: 41%
% PB (PB/GVBD) [1, 4]: 29%
Cumulus expansion [1, 4]: +++
% GVBD [1, 5]: 62%
% PB (PB/GVBD) [1, 5]: 25* %
% GVBD ([1]; 22-OH-cholesterole 3 μg/ml alone (no FSH), without fetal calf serum, HX-medium, 24 h): 26%
% GVBD [1, 6]: 72%
% PB (PB/GVBD) [1, 6]: 26* %
% GVBD [1, 7]: 39* %
% PB (PB/GVBD) [1, 7]: 14* %
% GVBD [1, 8]: 31* %
% PB (PB/GVBD) [1, 8]: 11* %
% GVBD [1, 9]: 19* %
% PB (PB/GVBD) [1, 9]: 28* %
% GVBD [1, 10]: 17* %
% PB (PB/GVBD) [1, 10]: 0* %
cumulus expansion with 22-hydroxycholesterol and FSH compared with FSH alone (in words) ([1]; tables 3 and 4, FSH 75 IU/L): occurs to similar degree
effect on FSH induced resumption of meiosis (in words) ([1]; tables 3 and 4, FSH 75 IU/L): prevents oocytes from resuming meiosis in the presence of FSH
effect on FF-MAS induced resumption of meiosis (in words) (cultured mouse oocytes): can prevent a FF-MAS induced resumption of meiosis

CC(=O)N1CCN(c2ccc(OCC3COC(Cn4ccnc4)(c4ccc(Cl)cc4Cl)O3)cc2)CC1 (centres unmarked) [Ketoconazole, ketoconazole]
% GVBD [2, 11]: 58%
% PB (PB/GVBD) [2, 11]: 33%
% GVBD [2, 12]: 48* %
% PB (PB/GVBD) [2, 12]: 30%
% GVBD [2, 13]: 35* %
% PB (PB/GVBD) [2, 13]: 25%
% GVBD [2, 14]: 20* %
% PB (PB/GVBD) [2, 14]: 19* %
% GVBD [2, 15]: 21* %
% PB (PB/GVBD) [2, 15]: 17* %
effect on FSH induced resumption of meiosis (in words) ([2]; ketoconazole with FSH 50 IU/L): prevents oocytes from resuming meiosis
effect on PB formation (in words) ([2]; ketoconazole with FSH 50 IU/L): dose-dependant inhibition of PB formation
% GVBD [3, 16]: 7%
% PB (PB/GVBD) [3, 16]: 57%
% GVBD [3, 17]: 7%
% PB (PB/GVBD) [3, 17]: 8%
% GVBD [3, 18]: 3%
% PB (PB/GVBD) [3, 18]: 0%
effect on FSH induced resumption of meiosis (in words) ([3]; ketoconazole 5-20 μM with FSH 75 IU/L): able to prevent oocytes resuming meiosis

AY-9944-A-7
accumulation of FF-MAS (in words) (cumulus enclosed oocytes): causes accumulation of FF-MAS
resumption of meiosis (in words) (cumulus enclosed oocytes): dose-dependant induction of resumption of meiosis

EGF: epidermal growth factor (NSDSECPLSHDGYCLHDGVCMYIEALDKYACNCVVGYIGERCQYRDLKWWELR; UniProt P01133 971-1023, looked up)
number of germinal vesicle oocytes reaching metaphase II (in words) (human oocytes): enhanced
